Patent US11382889B2, “NRF2 activators for the prevention and/or treatment of axonal degeneration” (priority 2018, dated 2022)

System: X-ALD fibroblasts
Experiment: NRF2 response (HMOX1, NQO1, GCLC expression) in X-ALD patient fibroblasts incubated with excess VLCFA
Format: cell-based, human
Conditions: normalized to RPLP0, fold change to vehicle
Method: This means that the NRF-2 target genes HMOX1, NQO1 and GCLC increase their expression when incubated with excess VLCFA. See FIG. 4 (n=8 per genotype and condition). Gene expression normalized relative to RPLP0. Quantification depicted as fold change to vehicle-treated (Veh) fibroblasts.

| Structure (SMILES) | NRF2 response: expression of NRF-2 target genes HMOX1, NQO1 and GCLC |
| --- | --- |
| Cc1c[nH]c(-c2cnc(NCCNc3ccc(C#N)cn3)nc2-c2ccc(Cl)cc2Cl)n1 [CT99021] | restore a normal NRF2 response |
| Cn1cc(C2=C(c3ccc(Cl)cc3Cl)C(=O)NC2=O)c2ccccc21 [SB216763] | restore a normal NRF2 response |
